Measurements taken from US20220152159A1, “PHARMACEUTICAL COMPOSITION, METHODS FOR TREATING AND USES THEREOF” (Boehringer Ingelheim International GmbH, priority 2010, published 2022).

Assays:
[1] = system: streptozotocin-pretreated male Sprague-Dawley rats (experimental diabetes, type 1 diabetic condition); assay: Example 1a: blood glucose over 4 h after SGLT2 inhibitor, insulin glargine or combination; type: in vivo, rat; settings: four hours after administration, Cpd. A 10 mg/kg oral, insulin glargine 1.5 IU/animal s.c.; for reduction of blood glucose versus control: combination at the same doses, 3-h fasted STZ rats; for statistical difference of blood glucose versus control: combination same doses
Experimental: All experimental protocols concerning the use of laboratory animals were reviewed by a federal Ethics Committee and approved by governmental authorities. Two weeks before the study starts, the rats were pretreated with a single dose of 60 mg/kg i.p. of streptozotocin to induced experimental diabetes, resembling a type 1 diabetic condition. During the study blood glucose was followed over 4 h in male, 3-h fasted Sprague-Dawley rats (Crl:CD) with an age of 8-9 weeks at the start of the study. A pre-dose blood sample was obtained by tail bleed for randomization and blood glucose was measured with a glucometer 30, 60, 90 min and 2, 3, 4 hours after administration of the insulin and/or the SGLT2 inhibitor. At time point 0 min, the animals (n=4-6 per group) were injected either with insulin glargine or isotonic NaCl subcutaneously. Simultaneously all animals received oral administrations of either vehicle alone (0.5% aqueous hydroxyethylcellulose) or this vehicle containing the SGLT2 inhibitor. The data are presented as mean±S.E.M. Statistical comparison was conducted by repeated measures two-way ANOVA (analysis of variance) followed by Bonferroni post tests for group-wise comparisons. A p value <0.05 was considered to show a statistically significant difference. The term “Cpd. A” denotes the SGLT2 inhibitor compound (1.9) at a dose of 10 mg/kg. Insulin glargine was administered at a dose of 1.5 IU/animal. The term “Cpd. A+Insulin glargine” denotes the combination of the SGLT2 inhibitor compound (1.9) and insulin glargine at the same doses. P values versus control are indicated by asterisks and p values of the monotherapies versus the combination are indicated by crosses (one symbol, p<0.05; two symbols, p<0.01; three symbols, p<0.001). Four hours after administration, the SGLT2 inhibitor had reduced blood glucose by 19% versus control, and insulin glargine by 27%.

[2] = system: streptozotocin-pretreated male Sprague-Dawley rats (experimental diabetes, type 1 diabetic condition); assay: Example 1b: blood glucose over 6 h after SGLT2 inhibitor, insulin glargine or combination; type: in vivo, rat; settings: six hours after administration, Cpd. A 10 mg/kg oral, insulin glargine 1.5 μl/animal s.c.; for reduction of blood glucose versus control: combination at the same doses, 3-h fasted STZ rats; for statistical difference of blood glucose versus control: combination same doses
Experimental: All experimental protocols concerning the use of laboratory animals were reviewed by a federal Ethics Committee and approved by governmental authorities. Two weeks before the study starts, the rats were pretreated with a single dose of 60 mg/kg i.p. of streptozotocin to induced experimental diabetes, resembling a type 1 diabetic condition. During the study blood glucose was followed over 6 h in male, 3-h fasted Sprague-Dawley rats (Crl:CD) with an age of 8-9 weeks at the start of the study. A pre-dose blood sample was obtained by tail bleed for randomization and blood glucose was measured with a glucometer 30, 60, 90 min and 2, 3, 4, 5, 6 hours after administration of insulin and/or the SGLT2 inhibitor. At time point 0 min, the animals (n=4-6 per group) were injected either with insulin glargine or isotonic NaCl subcutaneously. Simultaneously all animals received oral administrations of either vehicle alone (0.5% aqueous hydroxyethylcellulose) or this vehicle containing the SGLT2 inhibitor. The data are presented as mean±S.E.M. Statistical comparison was conducted by repeated measures two-way ANOVA followed by Bonferroni post tests for group-wise comparisons. A p value <0.05 was considered to show a statistically significant difference. The term “Cpd. A” denotes the SGLT2 inhibitor compound (1.9) at a dose of 10 mg/kg. Insulin glargine was administered at a dose of 1.5 μl/animal. The term “Cpd. A+Insulin glargine” denotes the combination of the SGLT2 inhibitor compound (1.9) and insulin glargine at the same doses. P values versus control are indicated by asterisks and p values of the monotherapies versus the combination are indicated by crosses (one symbol, p<0.05; two symbols, p<0.01; three symbols, p<0.001). Six hours after administration, the SGLT2 inhibitor had reduced blood glucose by 13% versus control, and insulin glargine by 22%.

the diabetic = settings: metformin on its own; cited from earlier work
[3] = system: streptozotocin-pretreated male Sprague-Dawley rats (experimental diabetes, type 1 diabetic condition); assay: Example 2b: blood glucose over 6 h, SGLT2 inhibitor plus low-dose insulin glargine versus high-dose insulin glargine; type: in vivo, rat; settings: for reduction of blood glucose versus control: six hours after administration; for statistical difference of blood glucose versus control: six hours
Experimental: All experimental protocols concerning the use of laboratory animals were reviewed by a federal Ethics Committee and approved by governmental authorities. Two weeks before the study starts, the rats were pretreated with a single dose of 60 mg/kg i.p. of streptozotocin to induced experimental diabetes, resembling a type 1 diabetic condition. During the study blood glucose was followed over 6 h in male, 3-h fasted Sprague-Dawley rats (Crl:CD) with an age of 8-9 weeks at the start of the study. A pre-dose blood sample was obtained by tail bleed for randomization and blood glucose was measured with a glucometer 30, 60, 90 min and 2, 3, 4, 5, 6 h after administration of insulin alone or together with the SGLT2 inhibitor. At time point 0 min, the animals (n=4-6 per group) were injected either with insulin glargine or isotonic NaCl subcutaneously. Simultaneously all animals received oral administrations of either vehicle alone (0.5% aqueous hydroxyethylcellulose) or this vehicle containing the SGLT2 inhibitor. The data are presented as mean±S.E.M. Statistical comparison was conducted by repeated measures two-way ANOVA followed by Bonferroni post tests for group-wise comparisons. A p value <0.05 was considered to show a statistically significant difference. Insulin glargine was administered at a dose of 1.5 μl/animal (low-dose) or 6 IU/animal (high-dose). The term “Cpd. A+low-dose insulin glargine” denotes the combination of the SGLT2 inhibitor at a dose of 10 mg/kg and insulin glargine at a dose of 1.5 μl/animal. P values versus control are indicated by asterisks and p values of the low-dose insulin glargine versus the combination or the high-dose insulin glargine are indicated by crosses (one symbol, p<0.05; two symbols, p<0.01; three symbols, p<0.001). […] The combination had decreased blood glucose by 49%, which was in the range of the high-dose insulin glargine with a decrease of 44%.

[4] = system: streptozotocin-pretreated male Sprague-Dawley rats (experimental diabetes, type 1 diabetic condition); assay: Example 2a: blood glucose over 4 h, SGLT2 inhibitor plus low-dose insulin glargine versus high-dose insulin glargine; type: in vivo, rat; settings: for reduction of blood glucose versus control: four hours after administration; for statistical difference of blood glucose versus control: four hours
Experimental: All experimental protocols concerning the use of laboratory animals were reviewed by a federal Ethics Committee and approved by governmental authorities. Two weeks before the study starts, the rats were pretreated with a single dose of 60 mg/kg i.p. of streptozotocin to induced experimental diabetes, resembling a type 1 diabetic condition. During the study blood glucose was followed over 4 h in male, 3-h fasted Sprague-Dawley rats (Crl:CD) with an age of 8-9 weeks at the start of the study. A pre-dose blood sample was obtained by tail bleed for randomization and blood glucose was measured with a glucometer 30, 60, 90 min and 2, 3, 4 h after administration of the insulin alone or together with the SGLT2 inhibitor. At time point 0 min, the animals (n=4-6 per group) were injected either with insulin glargine or isotonic NaCl subcutaneously. Simultaneously all animals received oral administrations of either vehicle alone (0.5% aqueous hydroxyethylcellulose) or this vehicle containing the SGLT2 inhibitor. The data are presented as mean±S.E.M. Statistical comparison was conducted by repeated measures two-way ANOVA followed by Bonferroni post tests for group-wise comparisons. A p value <0.05 was considered to show a statistically significant difference. Insulin glargine was administered at a dose of 1.5 μl/animal (low-dose) or 6 μl/animal (high-dose). The term “Cpd. A+low-dose insulin glargine” denotes the combination of the SGLT2 inhibitor at a dose of 10 mg/kg and insulin glargine at a dose of 1.5 μl/animal. P values versus control are indicated by asterisks and p values of the low-dose insulin glargine versus the combination or the high-dose insulin glargine are indicated by crosses (one symbol, p<0.05; two symbols, p<0.01; three symbols, p<0.001). […] The combination had decreased blood glucose by 53%, which was in the range of the high-dose insulin glargine with a decrease of 47%.

[5] = low-dose insulin glargine 1.5 μl/animal s.c., alone or with Cpd. A 10 mg/kg oral
[6] = low-dose insulin glargine 1.5 μl/animal, alone or with Cpd. A 10 mg/kg

| Compound | reduction of blood glucose versus control [1] | statistical difference of blood glucose versus control [1] | reduction of blood glucose versus control [2] | statistical difference of blood glucose versus control [2] | average improvement in the HbA1c value (the diabetic) | reduction of blood glucose versus control ([3]; high-dose insulin glargine 6 IU/animal s.c.) | reduction of blood glucose versus control [3, 5] | statistical difference of blood glucose versus control ([3]; high-dose insulin glargine 6 IU/animal) | statistical difference of blood glucose versus control [3, 6] | reduction of blood glucose versus control ([4]; high-dose insulin glargine 6 μl/animal s.c.) | reduction of blood glucose versus control [4, 5] | statistical difference of blood glucose versus control ([4]; high-dose insulin glargine 6 μl/animal) | statistical difference of blood glucose versus control [4, 6] |
| --- | --- | --- | --- | --- | --- | --- | --- | --- | --- | --- | --- | --- | --- |
| OC[C@H]1O[C@@H](c2ccc(Cl)c(Cc3ccc(O[C@H]4CCOC4)cc3)c2)[C@H](O)[C@@H](O)[C@@H]1O [compound (1.9), 1-chloro-4-(β-D-glucopyranos-1-yl)-2-[4-((S)-tetrahydrofuran-3-yloxy)-benzyl]-benzene] | 19% | did not show statistically significant differences versus control | 13% | did not show statistically significant differences versus control |  |  |  |  |  |  |  |  |  |
| CN(C)C(=N)N=C(N)N [metformin] |  |  |  |  | 1.0-1.5% |  |  |  |  |  |  |  |  |
| Gly^A21, Arg^B31, Arg^B32 human insulin [insulin glargine] | 27% | did not show statistically significant differences versus control | 22% | did not show statistically significant differences versus control |  | 44% | 22% | significantly different from the control | without showing statistically significant difference | 47% | 27% | significantly different from the control | without showing statistically significant difference |
